Laboratory results taken from US11370769B2, “TRPC5 inhibitors and methods of using same” (BOARD OF REGENTS OF THE UNIVERSITY OF NEBRASKA, priority 2017, dated 2022).
Each block holds one molecule with its values, some of them ahead of it.

Assays:
TRPC5 = biological target: T1, TRPC5 (Homo sapiens, UniProt Q9UL62); assay: Syncropath % inhibition TRPC5; format: cell-based; conditions: read-out: Syncropath % inhibition TRPC5 @3 μM; heading: Syncropath % inhibition TRPC5 @3
T1 construct: expressed in transfected cells; host or cells: HEK293
T1 sequence (Q9UL62 1-973): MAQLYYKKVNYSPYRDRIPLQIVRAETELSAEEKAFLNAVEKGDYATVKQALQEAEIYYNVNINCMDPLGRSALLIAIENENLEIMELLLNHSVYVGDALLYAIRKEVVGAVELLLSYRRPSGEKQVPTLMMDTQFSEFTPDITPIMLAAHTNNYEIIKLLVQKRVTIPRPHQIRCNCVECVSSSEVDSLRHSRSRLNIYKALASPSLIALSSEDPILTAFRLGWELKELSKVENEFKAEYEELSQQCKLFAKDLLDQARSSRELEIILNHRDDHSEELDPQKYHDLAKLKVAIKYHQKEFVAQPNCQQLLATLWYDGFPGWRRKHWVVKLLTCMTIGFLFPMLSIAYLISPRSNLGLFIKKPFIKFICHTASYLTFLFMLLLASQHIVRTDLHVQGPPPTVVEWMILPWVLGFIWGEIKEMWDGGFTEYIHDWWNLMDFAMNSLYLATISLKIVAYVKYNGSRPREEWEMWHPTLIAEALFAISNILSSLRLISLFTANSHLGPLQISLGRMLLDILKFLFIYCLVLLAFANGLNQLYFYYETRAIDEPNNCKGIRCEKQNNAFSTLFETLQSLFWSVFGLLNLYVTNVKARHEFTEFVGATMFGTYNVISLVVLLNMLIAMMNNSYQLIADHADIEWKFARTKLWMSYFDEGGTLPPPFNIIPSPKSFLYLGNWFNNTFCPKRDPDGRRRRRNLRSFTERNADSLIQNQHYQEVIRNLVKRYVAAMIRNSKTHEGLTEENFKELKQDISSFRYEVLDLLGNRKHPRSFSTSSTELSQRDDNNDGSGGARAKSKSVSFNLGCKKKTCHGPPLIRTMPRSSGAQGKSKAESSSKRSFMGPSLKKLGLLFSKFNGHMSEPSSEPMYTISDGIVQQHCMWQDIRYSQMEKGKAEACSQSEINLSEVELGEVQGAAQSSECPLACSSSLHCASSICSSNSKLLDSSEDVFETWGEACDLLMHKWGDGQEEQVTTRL

podocytes = assay: ROS assay in wild-type podocytes treated with AngII; format: cell-based, mouse; conditions: WT podocytes, AngII 10 μM, 30 μM compound, 3 hours
Protocol: (§1) Podocyte culture and viral transduction: Immortalized mouse podocytes were cultured as previously described (10, 11). Podocyte viral transduction was performed using lentivirus as previously described (10, 11). Briefly, lentivirus production was carried out in HEK293T cells at 60% confluence, and viral particles were collected two days after transfection and purified by centrifugation at 1,000 rcf for 5 min. Purified lentivirus was frozen at −80° C. until further use. Podocytes were transduced with lentivirus after 7 days of differentiation, and assays were performed 5 days after viral transduction.
ROS and cell viability assays: For ROS experiment in FIG. 4A, mature podocytes were cultured as previously described. Cells were incubated with CellRox Deep Red reagent (ThermoFisher) for 30 min at 37° C. Then cells were treated with DMSO, 10 μM angiotensin II, 10 μM angiotensin II with 30 μM AC1903, or 10 μM angiotensin II with 30 μM N-acetyl-L-cysteine (NAC) for 3 hours at 37° C. Cells were washed with PBS twice and fluorescence images were observed using Olympus IX71 microscopy. Fluorescence intensities were then analyzed using ImageJ software.

caAT1R podocytes [1] = assay: ROS assay in caAT1R expressing podocytes; format: cell-based, mouse; conditions: 30 μM ML204, 30 μM AC1903 or 50 μM NSC23677 for 36 hours
Protocol: as §1
(§2) For experiments in FIG. 4B/C, pCDNA3.1 AT1AR-Δ324 (rat AT1R NM_030985.4) containing HA tag (Plasmid #45635, Addgene) underwent site directed mutagenesis (Agilent) to generate the N111S substitution. For FIG. 4B, differentiated podocytes were transduced with the AT1A-N111S/Δ324 construct in six-well plates. Six days after viral transduction, cells were treated with either vehicle, 30 μM ML204, 30 μM AC1903 or 50 μM NSC23677 for 36 hours. Intracellular production of ROS was measured using a cell-permeable fluorescent dye, 5-(and-6)-chloromethyl-2′,7′-dichlorodihydrofluorescein diacetate, acetyl ester (CM-H2DCFDA, Molecular Probes). Cells were incubated with 5 μM CM-H2DCFDA at 37° C. for 45 min in Hanks' balanced salt solution (HBSS). Cells were then collected, resuspended in HBSS, stained with propidium iodide and the fluorescence intensity was assessed by flow cytometry using MACSQuant Analyzer (Miltenyi Biotec, Bergisch Gladbach, Germany). Living cells, which were PI negative, were selected by FACS gating and the fluorescence of CM-H2DCFDA was recorded on the FL-1 channel (525 nm). For FIG. 4C, differentiated podocytes were transduced with the AT1A-N111S/Δ324 construct in 96 well plates. Six days after transduction, the cells were treated with either vehicle, 30 μM ML204, 30 μM AC1903 or 50 μM NSC23677 for 36 hours. […]

caAT1R podocytes [2] = assay: Cell viability assay in podocytes expressing caAT1R; format: cell-based, mouse; conditions: 30 μM ML204, 30 μM AC1903 or 50 μM NSC23677 for 36 hours
Protocol: as §1, §2

inhibition at 3 µM (TRPC5): 88.7%
Structure (SMILES): Fc1ccc(Cc2c(NCc3ccco3)nc3ccccn23)cc1 [Compound 5, 3-(4-fluorobenzyl)-N-(furan-2-ylmethyl)imidazo[1,2-a]pyridin-2-amine]

inhibition at 3 µM (TRPC5): 33.4%
Structure (SMILES): c1ccc(Cc2c(N3CCCC3)nc3ccccn23)cc1 [Compound 7, 3-benzyl-2-(pyrrolidin-1-yl)imidazo[1,2-a]pyridine]

Structure (SMILES): CC(=O)N[C@@H](CS)C(=O)O [NAC, N-acetyl-L-cysteine, reference compound]
AngII-induced ROS (podocytes): rescued podocytes from AngII-induced ROS

Structure (SMILES): CCN(CC)CCSc1c2ccc(Cl)cc2nc2ccc(OC)cc12.Cl [NSC23677]
caAT1R-induced ROS generation (caAT1R podocytes [1]): blocked caAT1R-induced ROS generation | podocyte cell death on caAT1R expression (caAT1R podocytes [2]): protected from cell death
